US8247556B2, “Method for preparing 6-substituted-7-aza-indoles” (Amgen Inc., priority 2005, dated 2012)

Key:
CYP 2D6 = biological target: T1, CYP 2D6 (Homo sapiens, UniProt P10635); assay: Human Liver Microsome CYP 2D6 Inhibition; type: in vitro ADME; settings: human liver microsomes, bufuralol substrate; read-out: inhibited CYP2D6 microsomes, IC50
T1 construct: followed by 555.6 ml of 20 mg/mL HLM (BD Gentest); tissue BD Gentest; host or cells: human liver microsomes
Protocol: Determining the IC-50 for Human Liver Microsome CYP 2D6 Inhibition
Postassium Phosphate Buffer pH 7.4 (39.333 mL) is chilled in an ice bath and added to a 50 ml plastic tube. A 3.2 mM bufuralol solution is prepared. 111.1 ul of 3.2 mM bufuralol is added to the buffer followed by 555.6 ml of 20 mg/mL HLM (BD Gentest). The incubation mixture was gently inverted and equilibrated at 37° C. for 5 min. A stock inhibitor solution is prepared, such as in DMSO. Incubation mixture (801 ul) is added into 96-well, 1.2 mL plastic tubes. Inhibitor is added at various concentrations (e.g. 30 μM to […]). The tubes are sealed and mix by inverting 5 times gently. The incubation mixture containing inhibitor (270 μL) is added by aliquot into wells of a 1 mL, 96-well block (duplicate). The block is placed into a 37° C. water bath and equilibrated for 3 minutes. 10 mM NADPH (30 ml) is added to all samples. After 5 min, the reactions are stopped by adding 300 ml of Quench Solution [0.1% TFA in CH3CN]. 1′-OH-bufuralol-d9 (750 ng/mL 30 μL) is added, the block is gently vortexed then centrifuged at 3000 rpm for 10 min at 4° C. 50 μL of supernatant from all samples is added by aliquot into a shorter, 96-well block. The aliquoted supernatants are pooled with other assay(s) and HPLC Grade Water (50 μL) is added to all samples. After covering and shaking by vortex gently for 2 minutes, the solutions were analyzed by LC-MS (API 3000, 5% MeOH w/0.1% AcOH to 95% MeOH w/0.1% AcOH). 500 nM quinidine is used as a control.

[1] = tested on: VEGF-stimulated HUVEC proliferation (Human Umbilical Vein Endothelial cells); assay: HUVEC Proliferation Assay; type: cell-based; settings: VEGF 50 ng/mL, 72 h, CyQuant fluorescent dye, read-out: inhibited VEGF-stimulated HUVEC proliferation at a level
Protocol: Human Umbilical Vein Endothelial cells are purchased from Clonetics, Inc., as cryopreserved cells harvested from a pool of donors. These cells, at passage 1, are thawed and expanded in EBM-2 complete medium, until passage 2 or 3. The cells are trypsinized, washed in DMEM+10% FBS+antibiotics, and spun at 1000 rpm for 10 min. Prior to centrifugation of the cells, a small amount is collected for a cell count. After centrifugation, the medium is discarded, and the cells are resuspended in the appropriate volume of DMEM+10% FBS+antibiotics to achieve a concentration of 3×10^5 cells/mL. Another cell count is performed to confirm the cell concentration. The cells are diluted to 3×10^4 cells/mL in DMEM+10% FBS+antibiotics, and 100 μL of cells are added to a 96-well plate. The cells are incubated at 37° C. for 22 h.
Prior to the completion of the incubation period, compound dilutions are prepared. Five-point, five-fold serial dilutions are prepared in DMSO, at concentrations 400-fold greater than the final concentrations desired. 2.5 μL of each compound dilution are diluted further in a total of 1 mL DMEM+10% FBS+antibiotics (400× dilution). Medium containing 0.25% DMSO is also prepared for the 0 μM compound sample. At the 22 h time point, the medium is removed from the cells, and 100 μL of each compound dilution is added. The cells are incubated at 37° C. for 2-3 h.
During the compound pre-incubation period, the growth factors are diluted to the appropriate concentrations. Solutions of DMEM+10% FBS+antibiotics, containing either VEGF or bFGF at the following concentrations: 50, 10, 2, 0.4, 0.08, and 0 ng/mL are prepared. For the compound-treated cells, solutions of VEGF at 550 ng/mL or bFGF at 220 ng/mL for 50 ng/mL or 20 ng/mL final concentrations, respectively, are prepared since 10 μL of each will be added to the cells (110 μL final volume). At the appropriate time after adding the compounds, the growth factors are added. VEGF is added to one set of plates, while bFGF is added to another set of plates. For the growth factor control curves, the media on wells B4-G6 of plates 1 and 2 are replaced with media containing VEGF or bFGF at the varying concentrations (50-0 ng/mL). The cells are incubated at 37° C. for an additional 72 h.
At the completion of the 72 h incubation period, the medium is removed, and the cells are washed twice with PBS. After the second wash with PBS, the plates are tapped gently to remove excess PBS, and the cells are placed at −70° C. for at least 30 min. The cells are thawed and analyzed using the CyQuant fluorescent dye (Molecular Probes C-7026), following the manufacturer's recommendations. The plates are read on a Victor/Wallac 1420 workstation at 485 nm/530 nm (excitation/emission). Raw data are collected and analyzed using a 4-parameter fit equation in XLFit. IC50 values are then determined.

T1 sequence (P10635 whole entry): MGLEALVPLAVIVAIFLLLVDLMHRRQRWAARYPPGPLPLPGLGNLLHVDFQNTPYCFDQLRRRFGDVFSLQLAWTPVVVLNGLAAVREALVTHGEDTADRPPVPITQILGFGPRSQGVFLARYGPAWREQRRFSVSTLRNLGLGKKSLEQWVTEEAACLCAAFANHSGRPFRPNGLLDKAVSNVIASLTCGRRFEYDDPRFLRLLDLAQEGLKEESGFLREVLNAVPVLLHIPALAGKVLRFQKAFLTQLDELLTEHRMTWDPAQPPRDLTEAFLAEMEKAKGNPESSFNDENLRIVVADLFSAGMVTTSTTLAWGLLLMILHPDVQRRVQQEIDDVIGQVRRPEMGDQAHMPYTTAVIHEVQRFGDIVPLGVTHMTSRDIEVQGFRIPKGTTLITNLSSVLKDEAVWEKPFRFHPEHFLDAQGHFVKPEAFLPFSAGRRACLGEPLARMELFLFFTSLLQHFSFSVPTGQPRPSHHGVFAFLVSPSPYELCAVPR

IC50 (CYP 2D6) [µM]	Structure (SMILES)	IC50 [1] [µM]
> 20	CC(=O)N1CCC(C)(C)c2ccc(NC(=O)c3cccnc3NCc3ccnc4[nH]ccc34)cc21 [Example 52, N-(1-Acetyl-4,4-dimethyl-1,2,3,4-tetrahydro-quinolin-7-yl)-2-[(1H-pyrrolo[2,3-b]pyridin-4-ylmethyl)-amino]-nicotinamide]	< 0.5
> 20	Cc1nc2cc(NC(=O)c3cccnc3NCc3ccnc4[nH]ncc34)ccc2s1 [Example 70, N-(2-Methyl-1,3-benzothiazol-5-yl)-2-((1H-pyrazolo[3,4-b]pyridin-4-ylmethyl)amino)-3-pyridinecarboxamide]	< 0.5
> 20	CC1(C)CCNc2cc(NC(=O)c3cccnc3NCc3ccnc4c3CCN4)ccc21 [Example 31, 2-[(2,3-Dihydro-1H-pyrrolo[2,3-b]pyridin-4-ylmethyl)amino]-N-(4,4-dimethyl-1,2,3,4-tetrahydroquinolin-7-yl)nicotinamide]	< 0.5
> 20	CC1(C)CC(=O)Nc2cc(NC(=O)c3cc(F)cnc3NCc3ccnc4[nH]ccc34)ccc21 [Example 81, N-(4,4-dimethyl-2-oxo-1,2,3,4-tetrahydro-7-quinolinyl)-5-fluoro-2-((1H-pyrrolo[2,3-b]pyridin-4-ylmethyl)amino)-3-pyridinecarboxamide]	< 0.5
> 20	CC1(C)CN(C(=O)CN)c2cc(NC(=O)c3cccnc3NCc3ccnc4[nH]ccc34)ccc21 [Example 21, N-(1-Glycyl-3,3-dimethyl-2,3-dihydro-1H-indol-6-yl)-2-[(1H-pyrrolo[2,3-b]pyridin-4-ylmethyl)amino]nicotinamide]	< 0.5
> 20	CC1(C)CN(C(=O)C2CCCO2)Cc2cc(NC(=O)c3cccnc3NCc3ccnc4[nH]ccc34)ccc21 (single isomer, unassigned) [Example 14, N-{4,4-Dimethyl-2-[(2R*)-tetrahydrofuran-2-ylcarbonyl]-1,2,3,4-tetrahydroisoquinolin-7-yl}-2-[(1H-pyrrolo[2,3-b]pyridin-4-ylmethyl)amino]nicotinamide]	< 0.5
> 20	CC(=O)N1CC(C)(C)c2ccc(NC(=O)c3cccnc3NCc3ccnc4[nH]ccc34)cc21 [Example 6, N-(1-Acetyl-3,3-dimethyl-2,3-dihydro-1H-indol-6-yl)-2-[(1H-pyrrolo[2,3-b]pyridin-4-ylmethyl)amino]nicotinamide]	< 0.5
> 20	CC1(C)CN(C(=O)CN)Cc2cc(NC(=O)c3cccnc3NCc3ccnc4[nH]ccc34)ccc21 [Example 15, N-(2-Glycyl-4,4-dimethyl-1,2,3,4-tetrahydroisoquinolin-7-yl)-2-[(1H-pyrrolo[2,3-b]pyridin-4-ylmethyl)amino]nicotinamide]	–
> 20	Cc1nc2cc(NC(=O)c3cc(F)cnc3NCc3ccnc4[nH]ncc34)ccc2s1 [Example 116, 5-fluoro-N-(2-methyl-1,3-benzothiazol-5-yl)-2-((1H-pyrazolo[3,4-b]pyridin-4-ylmethyl)amino)-3-pyridinecarboxamide]	< 0.5
> 20	CC1(C)CC(=O)Nc2cc(NC(=O)c3cccnc3NCc3ccnc4[nH]ccc34)ccc21 [Example 12, N-(4,4-Dimethyl-2-oxo-1,2,3,4-tetrahydroquinolin-7-yl)-2-[(1H-pyrrolo[2,3-b]pyridin-4-ylmethyl)amino]nicotinamide]	< 0.5
> 20	CC(=O)N1CC(C)(C)c2ccc(NC(=O)c3cc(F)cnc3NCc3ccnc4[nH]ccc34)cc21 [Example 80, N-(1-acetyl-3,3-dimethyl-2,3-dihydro-1H-indol-6-yl)-5-fluoro-2-((1H-pyrrolo[2,3-b]pyridin-4-ylmethyl)amino)-3-pyridinecarboxamide]	< 0.5
> 20	CC1(C)CN(S(C)(=O)=O)c2cc(NC(=O)c3cccnc3NCc3ccnc4[nH]ccc34)ccc21 [Example 61, N-(1-Methanesulfonyl-3,3-dimethyl-2,3-dihydro-1H-indol-6-yl)-2-[(1H-pyrrolo[2,3-b]pyridin-4-ylmethyl)-amino]-nicotinamide]	< 0.5
> 20	CC(=O)N1CC2(CC2)c2ccc(NC(=O)c3cccnc3NCc3ccnc4[nH]ccc34)cc21 [Example 7]	< 0.5
> 20	[2H]C1([2H])CC(C)(C)c2ccc(NC(=O)c3cccnc3NCc3ccnc4[nH]ccc34)cc2N1 [Example 69, N-(2,2-Dideutero-4,4-dimethyl-1,2,3,4-tetrahydro-quinolin-7-yl)-2-[(1H-pyrrolo[2,3-b]pyridin-4-ylmethyl)-amino]-nicotinamide]	< 0.5
> 20	CC1(C)CNCc2cc(NC(=O)c3cccnc3NCc3c[nH]c4ncccc34)ccc21 [Example 38, N-(4,4-Dimethyl-1,2,3,4-tetrahydroisoquinolin-7-yl)-2-[(1H-pyrrolo[2,3-b]pyridin-3-ylmethyl)amino]nicotinamide]	< 0.5
–	O=C(Nc1ccc(Cl)c(C(F)(F)F)c1)c1cc(F)cnc1NCc1ccnc2[nH]ccc12 [Example 90, N-(4-chloro-3-(trifluoromethyl)phenyl)-5-fluoro-2-((1H-pyrrolo[2,3-b]pyridin-4-ylmethyl)amino)-3-pyridinecarboxamide]	< 0.5
> 20	CC(=O)N1Cc2cc(NC(=O)c3cccnc3NCc3ccnc4[nH]ccc34)ccc2C(C)(C)C1 [Example 13, N-(2-Acetyl-4,4-dimethyl-1,2,3,4-tetrahydroisoquinolin-7-yl)-2-[(1H-pyrrolo[2,3-b]pyridin-4-ylmethyl)amino]nicotinamide]	< 0.5
–	O=C(Nc1ccc(C(F)(F)C(F)(F)F)c(CN2CCNCC2)c1)c1cccnc1NCc1ccnc2[nH]ccc12 [Example 45, N-(4-Pentafluoroethyl-3-piperazin-1-ylmethyl-phenyl)-2-[(1H-pyrrolo[2,3-b]pyridin-4-ylmethyl)-amino]-nicotinamide]	< 0.5
> 20	CC(=O)N1CC(C)(C)c2ccc(NC(=O)c3cccnc3NCc3ccnc4c3CCN4)cc21 [Example 29, N-(1-Acetyl-3,3-dimethyl-2,3-dihydro-1H-indol-6-yl)-2-[(2,3-dihydro-1H-pyrrolo[2,3-b]pyridin-4-ylmethyl)amino]nicotinamide]	< 0.5
> 20	CC1(C)CCNc2cc(NC(=O)c3cc(F)cnc3NCc3ccnc4[nH]ccc34)ccc21 [Example 82, N-(4,4-dimethyl-1,2,3,4-tetrahydro-7-quinolinyl)-5-fluoro-2-((1H-pyrrolo[2,3-b]pyridin-4-ylmethyl)amino)-3-pyridinecarboxamide]	< 0.5
–	O=C(Nc1ccc2ncccc2c1)c1cccnc1NCc1ccnc2[nH]ccc12 [Example 53, 2-[(1H-Pyrrolo[2,3-b]pyridin-4-ylmethyl)-amino]-N-quinolin-6-yl-nicotinamide]	< 0.5
